From paper PMC6811436, “Epithelial Lining Fluid and Plasma Concentrations of Dalbavancin in Healthy Adults after a Single 1,500-Milligram Infusion” (Antimicrobial Agents and Chemotherapy, 2019)
Read-outs that look alike come from different tables or passages of the source.

Key:
[1] = Plasma pharmacokinetics after a single 1,500-mg i.v. dalbavancin infusion, phase 1 study; details: for Dalbavancin concn, calculated unbound plasma (median): 1,500 mg i.v.
Experimental: (§1) A phase 1 open-label, single-dose, safety, tolerability, and PK study of ELF and plasma concentrations of dalbavancin was conducted between May and June 2015 at the SOUSEIKAI Hakata Clinic in Fukuoka, Japan. The study was approved by the local institutional review board at the site. Thirty-seven healthy, nonsmoking Japanese adult subjects received a 1,500-mg dose of dalbavancin infused for 30 ± 2 min. Thirty-five subjects (5 enrolled in each of 7 cohorts) had bronchoscopy with bronchial microsampling of ELF using a microsampling probe (BC-401C; Olympus, Tokyo, Japan), as described previously ([9]), at one of seven time points from the start of dalbavancin infusion (4, 8, 12, 24, 72, 120, and 168 h). Topical lidocaine viscous was used for gargling; 4% lidocaine liquid by aerosol spray was then used for topical anesthesia in the larynx, followed by bronchoscopy, with additional 1% or 2% lidocaine applied to the vocal cords and lower airway as needed. Sedation was allowed per local standard of care. In the BMS procedure, microsampling catheter sponge probes were inserted carefully through a fiberoptic bronchoscope into the peripheral airways of the right lower lobe, with the inner probe gently in contact with the bronchial lumen for 15 s. Three unique probe samples were obtained from each subject for a specific time point. The tips of the probe samples were cut at 3 cm from the tip of each probe, and each time point sample consisted of three probes placed in a vial for analysis. Ten blood PK samples were collected into K2EDTA vacutainers from all 37 subjects up to 168 h postdose (0.5, 1, 2, 4, 8, 12, 24, 72, 120, and 168 h), and plasma was harvested for sample bioanalysis.
(§2) The dalbavancin ELF and plasma concentrations were measured using a validated liquid chromatography-tandem mass spectrometry (LC-MS/MS) method in each matrix ([14]). The bioanalytical methods were validated at Tandem Labs (West Trenton, NJ) under sponsor oversight. (Covance is the brand of Covance, Inc., and used by Tandem Labs, Inc., and NWT, Inc., wholly owned subsidiaries of Laboratory Corporation of America Holdings.) Because ELF can only be collected via invasive techniques, validation of the method in ELF was conducted in a surrogate matrix of human serum ultrafiltrate (HUF).
(§3) The plasma LC-MS/MS method was validated on an API 4000 (Sciex, Framingham, MA) using plasma protein precipitation for sample cleanup before injection for detection of the analytes of interest. Detection was carried out using positive-mode electrospray with selected reaction monitoring for the mass spectrometer operation mode. In plasma, the calibration range was validated from 0.500 to 500 μg/ml using 50 μl plasma for each analysis, with a lower limit of quantification (LLOQ) of 0.500 μg/ml. The ELF LC-MS/MS method was validated on an API 5000 (Sciex) using dilution for sample preparation before analysis. For ELF, the calibration range was validated from 0.010 to 2.00 μg/ml using 75 μl sample volume (study sample[s] consisted of ELF; and standards, blanks, and quality controls consisted of HUF in extraction solvent of 40:60 acetonitrile:water), with an LLOQ of 0.010 μg/ml. Detection was carried out using positive-mode electrospray with selected reaction monitoring for the mass spectrometer operation mode. A structural analog of dalbavancin, diethylamide of dalbavancin, was used as an internal standard in both methods in support of quantitation of dalbavancin.
(§4) Statistical analyses of safety parameters were performed using version 9.3 of SAS (SAS Institute, Inc., Cary, NC) on a LINUX operating system. Noncompartmental PK parameters based on plasma and ELF dalbavancin concentrations were determined for individual subjects, and descriptive statistics were performed using the software program Phoenix WinNonlin (version 6.2; Pharsight Corporation, Cary, NC). Plasma concentrations below the LLOQ were treated as 0 for all PK calculations.

[2] = Epithelial lining fluid (ELF) concentrations by bronchial microsampling after a single 1,500-mg infusion; details: for Dalbavancin concn, ELF (median) / Dalbavancin concn, ELF (mean [SD]): 1,500 mg i.v., LC-MS/MS
Experimental: as §1, §2, §3, §4

[3] = Safety and tolerability in the phase 1 study; format: in vivo, human; details: 37 subjects; 1,500 mg i.v. single dose
Excerpt: Key inclusion criteria were age between 20 and 55 years and body mass index (BMI) between 18 and 30 kg/m^2. […] Subjects were assigned to cohorts on a first-come, first-served basis. Safety data were collected at each visit (screening [days −28 to −3], baseline [days −3 to −1], and days 1, 2, 4, 6, and 8 to 9) and included adverse events, physical examination, chemistry and hematology assessments (screening/baseline, day 8 to 9), and chest X ray (at screening, to exclude subjects with lung disease, and on the day after BMS sampling).

[4] = test system: S. pneumoniae; details: in vivo, iv
[5] = test system: S. aureus; details: in vivo, iv
[6] = previously established, cited from earlier work
Experimental: The bioanalysis was conducted to meet current regulated bioanalysis requirements. The sensitivity, accuracy, precision, recovery, carryover, and matrix effect were established, and study samples were analyzed within established appropriate stabilities to cover sample collection, storage, and analysis. Dalbavancin plasma sample stability has previously been established for 368 days at −20 °C and for 56 days at −70°C. Stability of dalbavancin in HUF was established for 46 days at −70 °C. Plasma (370 samples) and ELF (35 samples; samples for each ELF time point collected on 3 BMS probes and analy ...

[7] = cited from earlier work
[8] = cited from earlier work; remark: listed apart in the source
Experimental: This study evaluated the PK of dalbavancin in ELF and plasma up to 7 days after a single 1,500-mg i.v. infusion in healthy Japanese subjects. Dalbavancin was detectable in bronchial ELF at the earliest time point (4 h postdose) and sustained for ≥7 days, exceeding the MIC90s of S. pneumoniae and S. aureus. While drug exposure at the site of infection is essential for antibacterial activity, the PK/PD parameter associated with efficacy for dalbavancin is AUC/MIC ([3]).

[9] = test system: S. aureus; design: method as in earlier work; details: cited from earlier work
Excerpt: (§5) Dalbavancin is 93% protein bound in plasma ([1]), and the pharmacokinetic/pharmacodynamic (PK/PD) parameter best associated with efficacy is area under the concentratio ...

[10] = test system: S. pneumoniae; design: method as in earlier work; details: cited from earlier work
Excerpt: as §5

[11] = test system: MRSA; details: one patient switched from vancomycin to dalbavancin 1,500 mg; cited from earlier work
Excerpt: (§6) Dalbavancin has been used off label for treatment of MRSA pneumonia in a patient treated with vancomycin who ...

[12] = test system: S. pneumoniae; details: single dose; immunocompetent and neutropenic rats; penicillin-susceptible and penicillin-resistant S. pneumoniae; cited from earlier work
Excerpt: as §6

[13] = test system: penicillin-resistant S. pneumoniae; details: single dose, rats with lobar pneumonia; cited from earlier work
Excerpt: as §6

[14] = cited from earlier work; remark: listed apart in the source
Excerpt: as §5

[15] = 1,500 mg i.v. single dose, bronchial microsampling
[16] = 8 h, bronchial microsampling, 5 subjects
[17] = 12 h, bronchial microsampling, 5 subjects
[18] = 24 h, bronchial microsampling, 5 subjects
[19] = 72 h, bronchial microsampling, 5 subjects
[20] = 120 h, bronchial microsampling, 5 subjects
[21] = 8 healthy subjects, 1,500 mg dalbavancin, ref Allergan, data on file

For CN[C@H]1C(=O)N[C@@H]2Cc3ccc(cc3)Oc3cc4cc(c3O[C@@H]3O[C@H](C(=O)O)[C@@H](O)[C@H](O)[C@H]3NC(=O)CCCCCCCCC(C)C)Oc3ccc(cc3Cl)[C@@H](O)[C@@H]3NC(=O)[C@H](NC(=O)[C@@H]4NC(=O)[C@@H](NC2=O)c2cc(cc(O)c2Cl)Oc2cc1ccc2O)c1ccc(O)c(c1)-c1c(O[C@H]2O[C@H](CO)[C@@H](O)[C@H](O)[C@@H]2O)cc(O)cc1[C@@H](C(=O)NCCCN(C)C)NC3=O [Dalbavancin], the “plasma AUC0–168, mean (SD)” value ([1]; 1,500 mg i.v. single dose, noncompartmental) was 21,087 (2,282) μg · h/ml, the “Dalbavancin concn, calculated unbound plasma (median)” value ([1]; 4 h, calculated with 93% protein binding (unbound fraction 7%)) was 20 µg/mL and the “Dalbavancin concn, calculated unbound plasma (median)” value ([1]; 8 h, calculated with unbound fraction 7%) was 16 µg/mL. The “Dalbavancin concn, calculated unbound plasma (median)” value ([1]; 12 h, calculated with unbound fraction 7%) was 14 µg/mL, the “Dalbavancin concn, calculated unbound plasma (median)” value ([1]; 24 h, calculated with unbound fraction 7%) was 12 µg/mL and the “Dalbavancin concn, calculated unbound plasma (median)” value ([1]; 72 h, calculated with unbound fraction 7%) was 8 µg/mL. The “Dalbavancin concn, calculated unbound plasma (median)” value ([1]; 120 h, calculated with unbound fraction 7%) was 7 µg/mL, the “Dalbavancin concn, calculated unbound plasma (median)” value ([1]; 168 h, calculated with unbound fraction 7%) was 6 µg/mL and the Tmax ([1]; human, in vivo, iv) was 30 min. For the same compound, the clearance ([1]; human, in vivo, iv) was 0.683 mL/min, the level at 0.5 h ([1]; human, in vivo, iv, 1500 mg) was 442 µg/mL and the level at 1 h ([1]; human, in vivo, iv, 1500 mg) was 397 µg/mL. It also gave a level at 2 h ([1]; human, in vivo, iv, 1500 mg) of 331 µg/mL, a level at 8 h ([1]; human, in vivo, iv, 1500 mg) of 222 µg/mL and a level at 12 h ([1]; human, in vivo, iv, 1500 mg) of 194 µg/mL. The level at 24 h ([1]; human, in vivo, iv, 1500 mg) was 169 µg/mL, the level at 72 h ([1]; human, in vivo, iv, 1500 mg) was 120 µg/mL and the level at 120 h ([1]; human, in vivo, iv, 1500 mg) was 94 µg/mL. The “ELF AUC0–168 (median)” value [2, 15] was 527 µg·h/mL, the “ELF Cmax (median)” value [2, 15] was 4 µg/mL and the “ELF Tmax (median)” value [2, 15] was 72 h. The “Dalbavancin concn, ELF (median)” value ([2]; 4 h, bronchial microsampling, 5 subjects per time point) was 1.9 µg/mL, the “Dalbavancin concn, ELF (mean [SD])” value ([2]; 4 h, bronchial microsampling, 5 subjects) was 1.9 (1.0) μg/ml and the “Dalbavancin concn, ELF (mean [SD])” value [2, 16] was 3.1 (1.9) μg/ml. For the same compound, the “Dalbavancin concn, ELF (median)” value [2, 16] was 2.2 µg/mL, the “Dalbavancin concn, ELF (mean [SD])” value [2, 17] was 3.6 (2.1) μg/ml and the “Dalbavancin concn, ELF (median)” value [2, 17] was 2.8 µg/mL. For the same compound, the “Dalbavancin concn, ELF (mean [SD])” value [2, 18] was 2.7 (0.5) μg/ml, the “Dalbavancin concn, ELF (median)” value [2, 18] was 2.6 µg/mL and the “Dalbavancin concn, ELF (mean [SD])” value [2, 19] was 7.3 (8.2) μg/ml. For the same compound, the “Dalbavancin concn, ELF (median)” value [2, 19] was 4.2 µg/mL, the “Dalbavancin concn, ELF (mean [SD])” value [2, 20] was 11.9 (20.1) μg/ml and the “Dalbavancin concn, ELF (median)” value [2, 20] was 3.3 µg/mL. The “Dalbavancin concn, ELF (median)” value ([2]; 168 h (7 days), bronchial microsampling, 5 subjects) was 2.1 µg/mL, the “Dalbavancin concn, ELF (mean [SD])” value ([2]; 168 h, bronchial microsampling, 5 subjects) was 2.0 (0.6) μg/ml and the “penetration of dalbavancin into ELF” value ([2]; ratio of AUC in ELF to unbound AUC in plasma (7% of AUC0–168)) was 36%. The clinical laboratory parameters [3] was “no observed safety concerns in clinical laboratory parameters”, the “serious AEs” value [3] was “no serious AEs” and the “severity of treatment-emergent AEs” value [3] was “all were mild”. The “subjects with at least one treatment-emergent adverse event (AE)” value [3] was “Five”, the “treatment-emergent AEs leading to withdrawal from study-drug therapy” value [3] was “no treatment-emergent AEs leading to withdrawal from study-drug therapy” and the “time ELF levels exceeded the MIC90 of S. pneumoniae” value [4] was no less than 7 days. For the same compound, the “time ELF levels exceeded the MIC90 of S. aureus” value [5] was no less than 7 days, the “plasma sample stability established for” value ([6]; −20 °C) was 368 days and the “plasma sample stability established for” value ([6]; −70°C) was 56 days. For the same compound, the solubility in saline [7] was “not soluble in saline”, the “plasma AUC0–24, mean (SD)” value [8, 21] was 5,202.55 (620.05) μg · h/ml and the “plasma Cmax, mean (SD)” value [8, 21] was 467.63 (55.73) μg/ml. The “mean Tmax” value ([8]; 8 healthy subjects, 1,500 mg, range 0.5 to 0.5, ref Allergan, data on file) was 30 min, the “median Tmax” value ([8]; 49 subjects, 1,500 mg dalbavancin) was 37.2 min and the “effect of surfactant on in vitro activity” value [9] was “does not appear to be appreciably affected by the presence of surfactant”. For the same compound, the “effect of surfactant on in vitro activity” value [10] was “does not appear to be appreciably affected by the presence of surfactant”, the “MRSA in sputum cultures” value [11] was “subsequent clearance of MRSA in sputum cultures” and the “bacterial counts in the lungs” value [12] was “reduction of bacterial counts observed in the lungs”. For the same compound, the lung bacterial load [13] was “significant reduction in the lung bacterial load”, the “protein bound in plasma” value [14] was 93% and the terminal half-life [14] was 14.4 days. The “time plasma concentrations maintained above the MIC90 for most Gram-positive pathogens, including S. aureus” value ([14]; single dose of 1,500 mg i.v.) was “at least 2 weeks”.
